In patent US20230293629A1, “METHODS FOR ATTENUATING RELEASE OF INFLAMMATORY MEDIATORS AND PEPTIDES USEFUL THEREIN” (BIOMARCK PHARMACEUTICALS LTD., priority 2006, published 2023):
Where a SMILES comes first, the peptide text is derived from it. Where no end group is shown, it is not given here. The star is where a group is joined. Myristoyl = CCCCCCCCCCCCCC(=O)*

Tests used:
HL-60 clone 15 cells = assay: PMA-stimulated EPO release from HL-60 clone 15 cells; format: cell-based, human; settings: 50 μM test peptide, two hour incubation with 100 nM PMA; HL-60 clone 15 cells
Procedure: (§1) Three types of human leukocyte cell lines, specifically the promyelocytic cell line HL-60 clone 15, the monocytic cell line U937, and the lymphocyte natural killer cell line NK-92 were purchased from American Type Culture Collection (ATCC; Rockville, MD). HL-60 clone 15 cells (ATCC CRL-1964) were maintained in medium consisting of RPMI 1640 with L-glutamine supplemented with 10% heat-inactivated fetal bovine serum (Gibco; Invitrogen Co., Carlsbad, CA), 50 IU/ml penicillin, 50 μg/mL streptomycin, and 25 mM HEPES buffer, pH 7.8, at 37° C. in an atmosphere containing 5% CO2. Final differentiation to an eosinophil-like phenotype was initiated by culturing cells at 5×10^5 cells/ml in the above medium containing 0.5 mM butyric acid (Sigma-Aldrich Co.) for 5 days as previously described (Tiffany H L, Li F, Rosenberg H F. Hyperglycosylation of eosinophil ribonucleases in a promyelocytic leukemia cell line and in differentiated peripheral blood progenitor cells. J Leukoc Biol 1995; 58:49-54; Tiffany H L, Alkhatib G, Combadiere C, Berger E A, Murphy P M. CC chemokine receptors 1 and 3 are differentially regulated by IL-5 during maturation of eosinophilic HL-60 cells. J Immunol 1998; 160:1385-1392). U937 cells (ATCC CRL-1593.2) were grown at 37° C. in an atmosphere of 5% CO2 in complete medium consisting of RPMI 1640 with L-glutamine supplemented with 10% FBS, 50 IU/ml penicillin, and 50 μg/mL streptomycin. NK-92 cells (ATCC CRL-2407) were maintained in alpha-MEM medium (Sigma-Aldrich Co.) supplemented with 20% FBS, 100 U/ml of interleukin-2 (IL-2) (Chemicon International, Inc., Temecula, CA), 5×10^−5 M of 2-mercaptoethanol, 50 IU/mL penicillin, and 50 μg/ml streptomycin at 37° C. in an atmosphere containing 5% CO2. Cell morphology was judged by assessment of Wright-Giemsa-stained cells. Viability of cells harvested for experiments was assessed by trypan blue exclusion and populations of cells with viability >95% were used.
(§2) HL-60 clone 15, U937, and NK-92 cells were washed and resuspended at 2.5×10^6 cells/ml in phenol red-free RPMI-1640 (Cellgro; Mediatech, Inc.) for all degranulation assays. Aliquots of cells in 15 ml tubes were preincubated with indicated concentrations of MANS, RNS, or a test peptide for 10 min at 37° C. The cells then were stimulated with PMA for up to 2 hr. A control reference (PMA control reference) was established for each cell type using HL-60 clone 15, U937, and NK-92 cells, respectively, which were washed and resuspended at 2.5×10^6 cells/ml in phenol red-free RPMI-1640 and stimulated with PMA but in the absence of MANS, RNS, or a test peptide for the same time periods. The reaction was terminated by placing tubes on ice and centrifuging cells at 400 g for 5 min at 4° C.
(§3) For measurements of released MPO from neutrophils and released lysozyme from U937 cells, we were able to quantify secretion by using as standards human MPO and egg white […], respectively. For released EPO from HL-60 clone 15 cells and for released granzyme from NK-92 cells, no standards were available to use for quantification. […] To measure intracellular EPO in HL-60 clone 15 cells and intracellular granzyme in NK-92 cells, appropriate aliquots of 0.1% triton X-100-lysed cells were taken for quantification of intracellular granule proteins as described below. All treatments were expressed as percentage of control to minimize variability between cultures.
EPO activity released by HL-60 clone 15 cells was assayed using TMB according to a previously established technique (Lacy P, Mahmudi-Azer S, Bablitz B, Hagen S C, Velazquez J R, Man S F, Moqbel R. Rapid mobilization of intracellularly stored RANTES in response to interferon-gamma in human eosinophils. Blood 1999; 94:23-32). Thus, 100 μL of TMB substrate solution was added to 50 μL=microliters) of sample in a 96-well microplate and incubated at room temperature for 15 min (min=minutes). […]

U937 cells = assay: PMA-stimulated lysozyme secretion by U937 cells; format: cell-based, human; settings: 50 μM test peptide, two hour incubation with 100 nM PMA; U937 cells
Procedure: as §1, §2, §3
Lysozyme secreted by U937 cells was measured using a spectrophotometric assay as described previously (Balboa M A, Saez Y, Balsinde J. Calcium-independent phospholipase A2 is required for lysozyme secretion in U937 promonocytes. J Immunol 2003; 170:5276-5280) with slight modification. Thus, 100 μL of sample was mixed with 100 μL of a Micrococcus lysodeikticus (Sigma-Aldrich Co.) suspension (0.3 mg/ml in 0.1 M sodium phosphate buffer, pH 7.0) in a 96-well microplate. The decrease in absorbance at 450 nm was measured at room temperature. […]

[1] = Qualitative solubility of peptides in 0.5 N saline, pH 6.5

| Compound | % Inhibition EPO (HL-60 clone 15 cells) [%] | % Inhibition Lysozyme (U937 cells) [%] | solubility [1] [mg/mL] |
| --- | --- | --- | --- |
| CCCCCCCCCCCCCC(=O)NCC(=O)N[C@@H](C)C(=O)N[C@@H](CCC(N)=O)C(=O)N[C@@H](Cc1ccccc1)C(=O)N[C@@H](CO)C(=O)N[C@@H](CCCCN)C(=O)N[C@H](C(=O)N[C@@H](C)C(=O)N[C@@H](C)C(=O)N[C@@H](CCCCN)C(=O)NCC(=O)N[C@@H](CCC(=O)O)C(=O)N[C@@H](C)C(=O)N[C@@H](C)C(=O)N[C@@H](C)C(=O)N[C@@H](CCC(=O)O)C(=O)O)[C@@H](C)O [MA-GAQFSKTAAKGEAAAE, GAQFSKTAAKGEAAAE] (Myristoyl-GAQFSKTAAKGEAAAE-OH; C-terminus assumed) | 30.3 | 99 | > 2 |
| Ac-TAAKGEAA [Ac-TAAKGEAA, TAAKGEAA] | 40.4 | 0.5 | > 230 |
| Ac-GAQFSKTAAKGA [Ac-GAQFSKTAAKGA, GAQFSKTAAKGA] | 40.9 | 24.1 | > 50 |
| CCCCCCCCCCCCCC(=O)N[C@@H](CO)C(=O)N[C@@H](CCCCN)C(=O)N[C@H](C(=O)N[C@@H](C)C(=O)N[C@@H](C)C(=O)N[C@@H](CCCCN)C(=O)NCC(=O)N[C@@H](CCC(=O)O)C(=O)N[C@@H](C)C(=O)N[C@@H](C)C(=O)N[C@@H](C)C(=O)N[C@@H](CCC(=O)O)C(=O)N[C@@H](CCCNC(=N)N)C(=O)N1CCC[C@H]1C(=O)NCC(=O)N[C@@H](CCC(=O)O)C(=O)N[C@@H](C)C(=O)N[C@@H](C)C(=O)N[C@H](C(=O)N[C@@H](C)C(=O)O)C(C)C)[C@@H](C)O (Myristoyl-SKTAAKGEAAAERPGEAAVA-OH; C-terminus assumed) | 0 | 99 | > 80 |
| CC(=O)N[C@@H](C)C(=O)N[C@@H](CCCCN)C(=O)NCC(=O)N[C@@H](CCC(=O)O)C(N)=O [Ac-AKGE-NH2, AKGE] (Ac-AKGE-NH2) | 45.6 | 26.8 | > 200 |
| Ac-GAQFSKTAAAGE [Ac-GAQFSKTAAAGE, GAQFSKTAAAGE] | 55.8 | 37.2 | > 50 |
| Ac-GAQFSATAAA [Ac-GAQFSATAAA, GAQFSATAAA] | 35.7 | 3.2 | < 10 |
| Ac-GAQFSKTAAA [Ac-GAQFSKTAAA, GAQFSKTAAA] | 55.2 | 28.3 | > 100 |
